The values that follow come from ChEMBL document CHEMBL4177682, “Indirubin derivatives protect against endoplasmic reticulum stress-induced cytotoxicity and down-regulate CHOP levels in HT22 cells” (Bioorg Med Chem Lett, 2017).

Activity calls are given as the source filed them. No cut-off for these calls is given here.

The test system of data set [1] is HT-22. The experiment in a line: Cytoprotective activity against tunicamycin-induced cell death in mouse HT22 cells at 20 uM after 24 hrs by MTT assay. Type of data set: functional, cell-based. On the technique in general: Formazan colour is commonly taken as a measure of viable cells.
Data set [2] concerns HT-22. The experiment in a line: Cytoprotective activity against tunicamycin-induced cell death in mouse HT22 cells after 24 hrs by MTT assay. Type of data set: functional, cell-based. The settings on record: for EC50: HT-22, 24 h.
The test system of data set [3] is HT-22. The experiment in a line: Cytoprotective activity against tunicamycin-induced cell death in mouse HT22 cells assessed as preservation of spindle shape morphology after 24 hrs by MTT assay. Type of data set: functional, cell-based.
The test system of data set [4] is HT-22. The experiment in a line: Suppression of TM-induced increase in CHOP expression in mouse HT22 cells at 20 uM after 12 hrs by Western blot analysis. It counts as functional, cell-based.
The subject of data set [5] is HT-22. The experiment in a line: Cytotoxicity against mouse HT22 cells at 20 uM after 24 hrs by MTT assay. The conditions noted are these: ht-22, 24 h. It counts as cell-based.
In data set [6] the test system is HT-22. The experiment in a line: Effect on CHOP expression in mouse HT22 cells at 20 uM after 12 hrs by Western blot analysis. It counts as cell-based. The conditions noted are these: ht-22, 12 h. On the technique in general: In western blotting, separated proteins are transferred to a membrane and probed.

Take `CC(C)c1ccc2c(c1)/C(=C1/Nc3ccccc3/C1=N\O)C(=O)N2`: the result with HT-22 [1] was Active. The Activity result in the data set with HT-22 [2] was “Dose-dependent effect”.

Regarding `CN1C(=O)/C(=C2\Nc3ccccc3C2=O)c2ccc(Br)cc21`, the outcome in the data set with HT-22 [1] was inactive.

`CC(C)c1ccc2c(c1)/C(=C1/Nc3ccccc3C1=O)C(=O)N2`: in the data set on HT-22 [2], the Activity result was “Dose-dependent effect”.

What is called EC50 is the concentration needed to bring the measured effect to its halfway point. Low values mean an effect from little substance, high ones a need for much substance. As for `CCc1ccc2c(c1)C(=O)/C(=C1/C(=O)Nc3ccccc31)N2`, the outcome in the data set with HT-22 [1], in the data set on HT-22 [3] and in the data set on HT-22 [4] was Active. Besides, the values for the Activity entry with HT-22 [5], in the data set on HT-22 [6] and in the data set with HT-22 [2] were “Non-Toxic”, “Non-Toxic” and “Dose-dependent effect”, respectively. The EC50 in the data set with HT-22 [2] was 24.5 µM.

For `COc1ccc2c(c1)NC(=O)/C2=C1\Nc2ccccc2C1=O`, the Activity result in the data set with HT-22 [2] was “Dose-dependent effect”.

As for `COc1ccc2c(c1)C(=N\O)/C(=C1/C(=O)Nc3ccccc31)N2`, the result in the data set on HT-22 [1] was Active. Further, in the data set with HT-22 [2], the Activity result was “Dose-dependent effect”.

As to `O=C1Nc2ccc(Br)cc2/C1=C1/Nc2ccc(Br)cc2C1=O`, the result in the data set with HT-22 [1], with HT-22 [3] and in the data set on HT-22 [4] was Active. The Activity result with HT-22 [5] was “Non-Toxic”; with HT-22 [6], “Non-Toxic”; with HT-22 [2] it was “Dose-dependent effect”. In the data set with HT-22 [2], the midpoint of the response, the EC50, lay at 21.3 µM.

Take `O=C1Nc2ccccc2/C1=C1/Nc2cc(Br)ccc2C1=O`: the Activity result with HT-22 [2] is “Dose-dependent effect”.

For `O=C1Nc2cc(Br)ccc2/C1=C1/Nc2ccccc2C1=O`, the outcome with HT-22 [1] was inactive.

`CC(C)(C)c1ccc2c(c1)/C(=C1/Nc3ccccc3C1=O)C(=O)N2`: the Activity result in the data set with HT-22 [2] is “Dose-dependent effect”.

Turning to `COc1cc2c(cc1OC)/C(=C1/Nc3ccccc3C1=O)C(=O)N2`, the Activity result in the data set on HT-22 [2] is “Dose-dependent effect”.

On to `O=C1Nc2ccc(Br)cc2/C1=C1/Nc2ccccc2/C1=N\O` [INDIRUBIN 2], for which the outcome with HT-22 [1], in the data set on HT-22 [3] and in the data set with HT-22 [4] was Active. Besides, the Activity result in the data set on HT-22 [5] is “Non-Toxic”; in the data set with HT-22 [6], “Non-Toxic”; in the data set on HT-22 [2] it was “Dose-dependent effect”. A half-maximal effect in the data set on HT-22 [2] (EC50) was put at 85.8 µM.

Consider `O=C1Nc2ccccc2/C1=C1/Nc2ccccc2C1=O` [INDIRUBIN], for which the Activity entry is “Toxic” in the data set with HT-22 [5] and “Dose-dependent effect” in the data set on HT-22 [2].

Consider `COc1ccc2c(c1)NC(=O)/C2=C1\Nc2ccccc2\C1=N/O`, for which the outcome in the data set with HT-22 [1] was Active. Further, the Activity result with HT-22 [2] is “Dose-dependent effect”.

`COc1ccc2c(c1)/C(=C1/Nc3ccccc3C1=O)C(=O)N2`: the Activity result in the data set on HT-22 [2] was “Dose-dependent effect”.

As to `O=C1Nc2ccc(Br)cc2/C1=C1/Nc2ccccc2C1=O`, the outcome with HT-22 [1], in the data set on HT-22 [3] and in the data set with HT-22 [4] was Active. The Activity entry with HT-22 [5] was “Non-Toxic”; in the data set on HT-22 [6], “Non-Toxic”; in the data set with HT-22 [2] it was “Dose-dependent effect”. Further, the concentration for a half-maximal effect (EC50) with HT-22 [2] came out at 36 µM.

As to `COc1cccc2c1NC(=O)/C2=C1\Nc2ccccc2\C1=N/O`, the result in the data set on HT-22 [1] was Active. Moreover, in the data set with HT-22 [2], the Activity entry is “Dose-dependent effect”.

As to `CCc1ccc2c(c1)/C(=C1/Nc3ccccc3C1=O)C(=O)N2`, in the data set with HT-22 [2], the Activity result was “Dose-dependent effect”.

Consider `O=C1Nc2cc(O)ccc2/C1=C1/Nc2ccccc2C1=O`, for which the outcome with HT-22 [1], in the data set on HT-22 [3] and with HT-22 [4] was Active. For the same molecule, the Activity entry in the data set on HT-22 [5] was “Non-Toxic”; with HT-22 [6], “Non-Toxic”; in the data set on HT-22 [2], “Dose-dependent effect”. The molecule also returned an EC50 in the data set with HT-22 [2] of 23.7 µM.

Consider `COc1cc2c(cc1OC)/C(=C1/Nc3ccccc3/C1=N\O)C(=O)N2`, for which the outcome with HT-22 [1] was Active. Moreover, the Activity entry in the data set on HT-22 [2] was “Dose-dependent effect”.

For `O=C1Nc2ccccc2/C1=C1/Nc2ccc(Br)cc2/C1=N\O`, the result in the data set with HT-22 [1] was Active. In addition, in the data set on HT-22 [2], the Activity result is “Dose-dependent effect”.

For the molecule `Cc1ccc2c(c1)/C(=C1/Nc3ccccc3/C1=N\O)C(=O)N2`, the outcome in the data set with HT-22 [1] was Active. The Activity entry with HT-22 [2] is “Dose-dependent effect”.

`COc1cccc2c1NC(=O)/C2=C1\Nc2ccccc2C1=O`: in the data set with HT-22 [2], the Activity entry is “Dose-dependent effect”.

With `COc1ccc2c(c1)C(=O)/C(=C1/C(=O)Nc3ccc(OC)cc31)N2`, the outcome with HT-22 [1], in the data set with HT-22 [3] and in the data set with HT-22 [4] was Active. In addition, the figures for the Activity entry with HT-22 [5], in the data set on HT-22 [6] and in the data set on HT-22 [2] were “Non-Toxic”, “Non-Toxic” and “Dose-dependent effect”, respectively. This molecule showed an EC50 in the data set on HT-22 [2] of 30 µM.

Consider `O=C1Nc2ccc(Br)cc2/C1=C1/Nc2ccc(Br)cc2/C1=N\O`, for which the result with HT-22 [1] was Active. The Activity result with HT-22 [5] is “Toxic”; in the data set on HT-22 [2], “Dose-dependent effect”.

For `O=C1Nc2c(Br)cccc2/C1=C1/Nc2ccccc2C1=O`, the outcome in the data set on HT-22 [1] was inactive.

As for `O=C1Nc2c(O)cccc2/C1=C1/Nc2ccccc2C1=O`, the Activity entry in the data set on HT-22 [2] was “Dose-dependent effect”.

As to `COc1ccc2c(c1)/C(=C1/Nc3ccc(OC)cc3/C1=N\O)C(=O)N2`, the Activity entry in the data set with HT-22 [2] is “Dose-dependent effect”.

`COc1ccc2c(c1)/C(=C1/Nc3ccccc3/C1=N\O)C(=O)N2`: the outcome with HT-22 [1] was Active. Also, the Activity result in the data set with HT-22 [2] was “Dose-dependent effect”.

Regarding `CCc1ccc2c(c1)/C(=C1/Nc3ccccc3/C1=N\O)C(=O)N2`, in the data set with HT-22 [1], the outcome was Active. Besides, the Activity result in the data set with HT-22 [2] was “Dose-dependent effect”.

As to `O=C1Nc2ccccc2/C1=C1/Nc2ccccc2/C1=N\OCC1CO1` (stereo not given), the Activity entry in the data set with HT-22 [2] is “Dose-dependent effect”.

As for `Cc1ccc2c(c1)C(=O)/C(=C1/C(=O)Nc3ccccc31)N2`, the Activity result in the data set on HT-22 [2] is “Dose-dependent effect”.

Consider `COc1ccc2c(c1)C(=O)/C(=C1/C(=O)Nc3ccccc31)N2`, for which the Activity result with HT-22 [2] is “Dose-dependent effect”.

As to `O=C1Nc2ccccc2/C1=C1/Nc2ccccc2/C1=N\O`, the result in the data set on HT-22 [1] was Active. In addition, the Activity result with HT-22 [5] is “Toxic”; in the data set on HT-22 [2], “Dose-dependent effect”.

For `CC(C)(C)c1ccc2c(c1)/C(=C1/Nc3ccccc3/C1=N\O)C(=O)N2`, in the data set with HT-22 [1], the result was Active. Moreover, the Activity result with HT-22 [2] is “Dose-dependent effect”.

With `O=C(O)Cc1ccc2c(c1)/C(=C1/Nc3ccccc3C1=O)C(=O)N2`, the Activity result with HT-22 [2] was “Dose-dependent effect”.

With `O=C1Nc2ccccc2/C1=C1/Nc2cc(Br)ccc2/C1=N\O`, the result in the data set on HT-22 [1] was Active. Moreover, the Activity result in the data set on HT-22 [2] was “Dose-dependent effect”.

As for `CN1C(=O)/C(=C2\Nc3ccccc3\C2=N/O)c2ccc(Br)cc21`, the outcome in the data set on HT-22 [1] was Active. For the same molecule, the Activity result with HT-22 [2] was “Dose-dependent effect”.

As for `O=C1Nc2cc(Br)ccc2/C1=C1/Nc2ccccc2/C1=N\O` [6BIO], the result in the data set on HT-22 [1] was inactive. For the same molecule, the Activity result with HT-22 [5] is “Toxic”.

As for `O=C1Nc2ccc(O)cc2/C1=C1/Nc2ccccc2C1=O`, in the data set with HT-22 [2], the Activity result was “Dose-dependent effect”.

With `O=C1Nc2ccccc2/C1=C1/Nc2ccc(Br)cc2C1=O`, the Activity entry in the data set on HT-22 [2] was “Dose-dependent effect”.

For `CC(=O)N1C(=O)/C(=C2\Nc3ccccc3C2=O)c2ccccc21`, the outcome in the data set on HT-22 [1], in the data set with HT-22 [3] and in the data set with HT-22 [4] was Active. The results for the Activity result in the data set on HT-22 [5], with HT-22 [6] and in the data set on HT-22 [2] were “Non-Toxic”, “Non-Toxic” and “Dose-dependent effect”, respectively. The EC50 in the data set with HT-22 [2] is 9.8 µM.

Consider `COc1ccc2c(c1)N/C(=C1\C(=O)Nc3ccccc31)C2=O`, for which the Activity entry with HT-22 [2] is “Dose-dependent effect”.

As to `Cc1ccc2c(c1)/C(=C1/Nc3ccccc3C1=O)C(=O)N2`, the outcome in the data set with HT-22 [1], in the data set with HT-22 [3] and with HT-22 [4] was Active. For the same molecule, the Activity entry in the data set on HT-22 [5] is “Non-Toxic”; in the data set on HT-22 [6] it was “Non-Toxic”; with HT-22 [2], “Dose-dependent effect”. The same molecule showed an EC50 in the data set with HT-22 [2] of 30.8 µM.
